PubChem BioAssay AID2060627 (Molecular Pharmacology Branch, DTP, NCI, 2025)

system: 156681-154-R-J1-PDC complex spheroid viability; test: Anticancer human tumor 156681-154-R-J1-PDC patient-derived melanoma cell line growth inhibition [CLK]; settings: second compound 3.16 µM; first compound 0.0316 µM; hits give low values
In short: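 Multi-cell-type spheroids combined patient-derived tumor cells with HUVEC endothelial cells and human mesenchymal stem cells. Paired agents were dosed in half-log steps down from about clinical Cmax, or from 10 microM where Cmax was unknown.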
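Further: spheroids exposed to the agents for seven days; 100% = DMSO vehicle control viability.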

Row | Compound | viability, T/C [%]
1 | COc1ccc([C@@H](O)c2cc(-c3ncnc4cc(N5CCOCC5)ccc34)c(F)cc2Cl)nn1 + CN1CCN(c2cc(C(=O)Nc3cc4cc(-c5cnn(C)c5)ccc4cn3)ccn2)CC1 | 0.06
2 | CCCS(=O)(=O)Nc1ccc(F)c(C(=O)c2c[nH]c3ncc(-c4ccc(Cl)cc4)cc23)c1F + CNC(=O)c1ccc(Nc2nc(OC3CCCC3)c3c(-c4ccc5nc(C)oc5c4)c[nH]c3n2)c(OC)c1 | 41.1
3 | O=C(c1cc(Cc2n[nH]c(=O)c3ccccc23)ccc1F)N1CCN(C(=O)C2CC2)CC1 + CNC(=O)c1ccc(Nc2nc(OC3CCCC3)c3c(-c4ccc5nc(C)oc5c4)c[nH]c3n2)c(OC)c1 | 47.8
4 | CC(Nc1ccc2c(c1)OCCn1cc(N3C(=O)OCC3C(F)F)nc1-2)C(N)=O (centres undefined) + CN1CCN(c2cc(C(=O)Nc3cc4cc(-c5cnn(C)c5)ccc4cn3)ccn2)CC1 | 0.05

same assay, conditions: second compound 3.16 µM; first compound 0.1 µM; hits give low values

Row | Compound | viability, T/C [%]
5 | C=C(F)C(=O)N1CCN(c2nc(OCC3CCCN3C)nc3c2CCN(c2cccc4cccc(Cl)c24)C3)CC1CC#N (centres undefined) + CN1CCN(c2cc(C(=O)Nc3cc4cc(-c5cnn(C)c5)ccc4cn3)ccn2)CC1 | 1.74
6 | COc1ccc([C@@H](O)c2cc(-c3ncnc4cc(N5CCOCC5)ccc34)c(F)cc2Cl)nn1 + CN1CCN(c2cc(C(=O)Nc3cc4cc(-c5cnn(C)c5)ccc4cn3)ccn2)CC1 | 1.44
7 | CCCS(=O)(=O)Nc1ccc(F)c(C(=O)c2c[nH]c3ncc(-c4ccc(Cl)cc4)cc23)c1F + CNC(=O)c1ccc(Nc2nc(OC3CCCC3)c3c(-c4ccc5nc(C)oc5c4)c[nH]c3n2)c(OC)c1 | 29.7
8 | O=C(c1cc(Cc2n[nH]c(=O)c3ccccc23)ccc1F)N1CCN(C(=O)C2CC2)CC1 + CNC(=O)c1ccc(Nc2nc(OC3CCCC3)c3c(-c4ccc5nc(C)oc5c4)c[nH]c3n2)c(OC)c1 | 48.2
9 | CC(Nc1ccc2c(c1)OCCn1cc(N3C(=O)OCC3C(F)F)nc1-2)C(N)=O (centres undefined) + CN1CCN(c2cc(C(=O)Nc3cc4cc(-c5cnn(C)c5)ccc4cn3)ccn2)CC1 | 1.73

same assay, conditions: second compound 3.16 µM; first compound 0.316 µM; hits give low values

Row | Compound | viability, T/C [%]
10 | C=C(F)C(=O)N1CCN(c2nc(OCC3CCCN3C)nc3c2CCN(c2cccc4cccc(Cl)c24)C3)CC1CC#N (centres undefined) + CN1CCN(c2cc(C(=O)Nc3cc4cc(-c5cnn(C)c5)ccc4cn3)ccn2)CC1 | 1.8
11 | COc1ccc([C@@H](O)c2cc(-c3ncnc4cc(N5CCOCC5)ccc34)c(F)cc2Cl)nn1 + CN1CCN(c2cc(C(=O)Nc3cc4cc(-c5cnn(C)c5)ccc4cn3)ccn2)CC1 | 0.99
12 | CCCS(=O)(=O)Nc1ccc(F)c(C(=O)c2c[nH]c3ncc(-c4ccc(Cl)cc4)cc23)c1F + CNC(=O)c1ccc(Nc2nc(OC3CCCC3)c3c(-c4ccc5nc(C)oc5c4)c[nH]c3n2)c(OC)c1 | 33.5
13 | O=C(c1cc(Cc2n[nH]c(=O)c3ccccc23)ccc1F)N1CCN(C(=O)C2CC2)CC1 + CNC(=O)c1ccc(Nc2nc(OC3CCCC3)c3c(-c4ccc5nc(C)oc5c4)c[nH]c3n2)c(OC)c1 | 47.9
14 | CC(Nc1ccc2c(c1)OCCn1cc(N3C(=O)OCC3C(F)F)nc1-2)C(N)=O (centres undefined) + CN1CCN(c2cc(C(=O)Nc3cc4cc(-c5cnn(C)c5)ccc4cn3)ccn2)CC1 | 2.06

same assay, conditions: second compound 3.16 µM; first compound 1 µM; hits give low values

Row | Compound | viability, T/C [%]
15 | C=C(F)C(=O)N1CCN(c2nc(OCC3CCCN3C)nc3c2CCN(c2cccc4cccc(Cl)c24)C3)CC1CC#N (centres undefined) + CN1CCN(c2cc(C(=O)Nc3cc4cc(-c5cnn(C)c5)ccc4cn3)ccn2)CC1 | 0.12
16 | COc1ccc([C@@H](O)c2cc(-c3ncnc4cc(N5CCOCC5)ccc34)c(F)cc2Cl)nn1 + CN1CCN(c2cc(C(=O)Nc3cc4cc(-c5cnn(C)c5)ccc4cn3)ccn2)CC1 | 0.08
17 | CCCS(=O)(=O)Nc1ccc(F)c(C(=O)c2c[nH]c3ncc(-c4ccc(Cl)cc4)cc23)c1F + CNC(=O)c1ccc(Nc2nc(OC3CCCC3)c3c(-c4ccc5nc(C)oc5c4)c[nH]c3n2)c(OC)c1 | 34
18 | O=C(c1cc(Cc2n[nH]c(=O)c3ccccc23)ccc1F)N1CCN(C(=O)C2CC2)CC1 + CNC(=O)c1ccc(Nc2nc(OC3CCCC3)c3c(-c4ccc5nc(C)oc5c4)c[nH]c3n2)c(OC)c1 | 45.2
19 | CC(Nc1ccc2c(c1)OCCn1cc(N3C(=O)OCC3C(F)F)nc1-2)C(N)=O (centres undefined) + CN1CCN(c2cc(C(=O)Nc3cc4cc(-c5cnn(C)c5)ccc4cn3)ccn2)CC1 | 0.08

same assay, conditions: second compound 3.16 µM; first compound 3.16 µM; hits give low values

Row | Compound | viability, T/C [%]
20 | C=C(F)C(=O)N1CCN(c2nc(OCC3CCCN3C)nc3c2CCN(c2cccc4cccc(Cl)c24)C3)CC1CC#N (centres undefined) + CN1CCN(c2cc(C(=O)Nc3cc4cc(-c5cnn(C)c5)ccc4cn3)ccn2)CC1 | 0.36
21 | COc1ccc([C@@H](O)c2cc(-c3ncnc4cc(N5CCOCC5)ccc34)c(F)cc2Cl)nn1 + CN1CCN(c2cc(C(=O)Nc3cc4cc(-c5cnn(C)c5)ccc4cn3)ccn2)CC1 | 3.19
22 | CCCS(=O)(=O)Nc1ccc(F)c(C(=O)c2c[nH]c3ncc(-c4ccc(Cl)cc4)cc23)c1F + CNC(=O)c1ccc(Nc2nc(OC3CCCC3)c3c(-c4ccc5nc(C)oc5c4)c[nH]c3n2)c(OC)c1 | 36.2
23 | O=C(c1cc(Cc2n[nH]c(=O)c3ccccc23)ccc1F)N1CCN(C(=O)C2CC2)CC1 + CNC(=O)c1ccc(Nc2nc(OC3CCCC3)c3c(-c4ccc5nc(C)oc5c4)c[nH]c3n2)c(OC)c1 | 35.2
24 | CC(Nc1ccc2c(c1)OCCn1cc(N3C(=O)OCC3C(F)F)nc1-2)C(N)=O (centres undefined) + CN1CCN(c2cc(C(=O)Nc3cc4cc(-c5cnn(C)c5)ccc4cn3)ccn2)CC1 | 1.56

same assay, conditions: second compound 3.16 µM; first compound 10 µM; hits give low values

Row | Compound | viability, T/C [%]
25 | C=C(F)C(=O)N1CCN(c2nc(OCC3CCCN3C)nc3c2CCN(c2cccc4cccc(Cl)c24)C3)CC1CC#N (centres undefined) + CN1CCN(c2cc(C(=O)Nc3cc4cc(-c5cnn(C)c5)ccc4cn3)ccn2)CC1 | 1.56
26 | COc1ccc([C@@H](O)c2cc(-c3ncnc4cc(N5CCOCC5)ccc34)c(F)cc2Cl)nn1 + CN1CCN(c2cc(C(=O)Nc3cc4cc(-c5cnn(C)c5)ccc4cn3)ccn2)CC1 | 0.56
27 | CCCS(=O)(=O)Nc1ccc(F)c(C(=O)c2c[nH]c3ncc(-c4ccc(Cl)cc4)cc23)c1F + CNC(=O)c1ccc(Nc2nc(OC3CCCC3)c3c(-c4ccc5nc(C)oc5c4)c[nH]c3n2)c(OC)c1 | 13.8
28 | O=C(c1cc(Cc2n[nH]c(=O)c3ccccc23)ccc1F)N1CCN(C(=O)C2CC2)CC1 + CNC(=O)c1ccc(Nc2nc(OC3CCCC3)c3c(-c4ccc5nc(C)oc5c4)c[nH]c3n2)c(OC)c1 | 20.2
29 | CC(Nc1ccc2c(c1)OCCn1cc(N3C(=O)OCC3C(F)F)nc1-2)C(N)=O (centres undefined) + CN1CCN(c2cc(C(=O)Nc3cc4cc(-c5cnn(C)c5)ccc4cn3)ccn2)CC1 | 1.84
